The nature of data set [1]: LD50 after administration per os in mice. The settings on record: mouse, in vivo, po, LD50, mice, per os.
Data set [2] is described as follows: comparative levels of 6-/N,N-1',6'-hexyleneformamidine/-penicillanic acid in blood serum, livers, lungs and kidneys of rats after per os administration (Table 2). In kind it is in vivo. The source says: The results of the measurements, expressed in μg/ml are specified in Table 2.
For another data set, the system named is arterial pressure. Nature of the data set: effect onto the arterial pressure of experimental animals. The settings on record: on the contrary to Pivmecillinam. In kind it is in vivo.
For data set [3] the following is noted: rat, in vivo.
Another data set concerns mice. Nature of the data set: LD50 after administration per os in mice.
The next data set can be described thus: in vivo. The settings on record: mouse, po.
Data set [4] is described as follows: levels of free acid in serum and organs of rats after per os administration of the aminopropyl dihydrochloride. Type of data set: in vivo.

Each structure is given as a SMILES string. Counter-ions that a name gives are not always drawn. Like-named read-outs stand apart in the source and are kept apart here.

By LD50 is commonly meant the dose expected to kill half of the subjects tested. High values mean lower toxicity, low ones greater toxicity.

`CC(=O)COC(=O)[C@@H]1N2C(=O)[C@@H](N=CN3CCCCCC3)[C@H]2SC1(C)C` [methylacetic ester of 6-/N,N-1', 6'-hexyleneformamidine/-penicillanic acid] showed an LD50 in data set [1] greater than 3000 mg/kg.
On to `CC(=O)COC(=O)[C@@H]1N2C(=O)[C@@H](N=CN3CCCCCC3)[C@H]2SC1(C)C` [Methylacetic ester of 6-N,N-1', 6'-hexyleneformamidine/-peni] [methylacetic ester of 6-/N,N-1', 6'-hexyleneformamidine/-penicillanic acid], for which the “maximum level in kidneys relative to equivalent dose of Pivmecillinam” value in data set [2] (kidneys) was “three times”. Also, the “maximum level in the liver relative to equivalent dose of Pivmecillinam” value in data set [2] (liver) is on record as “over two times higher”. Besides, in data set [2] (lungs, equivalent doses), the “maximum levels in the lungs, ester and Pivmecillinam compared” value is listed as “approximate ones”. Also, the “effect onto the arterial pressure” value in the data set on arterial pressure is listed as “no effect”. Besides, the “levels of free acid in the serum, comparison of preparations” value in data set [3] was “highest levels”. Further, the “maximum serum level relative to equivalent dose of Pivmecillinam” value in data set [3] is reported as “over two times higher”. Besides, in data set [3], the “maximum serum level relative to equivalent dose of corresponding free acid” value is “over twenty times higher”. The level of free acid in blood serum amounted to 29300 ng/mL in data set [3] (5 min); 35000 ng/mL in data set [3] (10 min); 42700 ng/mL in data set [3] (15 min); 21100 ng/mL in data set [3] (30 min); 21200 ng/mL in data set [3] (45 min); 16900 ng/mL in data set [3] (60 min). Moreover, the level of free acid in blood serum came out at 4900 ng/mL in data set [3] (120 min); 1600 ng/mL in data set [3] (180 min); 800 ng/mL in data set [3] (240 min); 600 ng/mL in data set [3] (300 min); 300 ng/mL in data set [3] (360 min). In addition, the “toxicity compared with Pivascillinam” value in the data set with mice (compared with Pivascillinam) was “toxicity lower than that of Pivascillinam”.
Take `CC(C)(C)C(=O)OCOC(=O)[C@@H]1N2C(=O)[C@@H](/N=C/N3CCCCCC3)[C@H]2SC1(C)C` [Pivmecillinam, hydrochloride of pivaloyl-oxymethyl ester of 6-/N,N-1',6'-hecylaneformamidine/-penicillanicacid, reference compound]: the level of free acid in blood serum in data set [3] (5 min) was 6300 ng/mL; in data set [3] (10 min), 12700 ng/mL; in data set [3] (15 min), 15500 ng/mL; in data set [3] (30 min), 19200 ng/mL; in data set [3] (45 min), 16300 ng/mL; in data set [3] (60 min), 14700 ng/mL. The level of free acid in blood serum in data set [3] (120 min) came out at 7900 ng/mL; in data set [3] (180 min), 2100 ng/mL; in data set [3] (240 min), 1800 ng/mL; in data set [3] (300 min), 1500 ng/mL; in data set [3] (360 min) it was 1100 ng/mL. Moreover, in the data set “in vivo”, the LD50 was 2600 mg/kg.
Turning to `CC(=O)COC(=O)[C@@H]1N2C(=O)[C@@H](N=CN3CCCCCC3)[C@H]2SC1(C)C` [Hydrochloride of methylacetic ester of 6-/N,N1', 6'-hexylene] [hydrochloride of methylacetic ester of 6-/N, N-1', 6'-hexyleneformamidine/-penicillanic acid], the “effect onto the arterial pressure” value in the data set with arterial pressure is listed as “no effect”. The level of free acid in blood serum stood at 12900 ng/mL in data set [3] (5 min); 14300 ng/mL in data set [3] (10 min); 16400 ng/mL in data set [3] (15 min); 16100 ng/mL in data set [3] (30 min); 18900 ng/mL in data set [3] (45 min); 14400 ng/mL in data set [3] (60 min). Besides, the level of free acid in blood serum stood at 9100 ng/mL in data set [3] (120 min); 2100 ng/mL in data set [3] (180 min); 1000 ng/mL in data set [3] (240 min); 800 ng/mL in data set [3] (300 min); 100 ng/mL in data set [3] (360 min). For the same molecule, in the data set with mice (mice, per os, listed as hydrochloride of said ester), the LD50 result is “over 5 g/kg of the body weight”.
On to `CC(=O)COC(=O)[C@@H]1N2C(=O)[C@@H](N=CN3CCC(CCCN)CC3)[C@H]2SC1(C)C` [dihydrochloride of ester methylacetic of 6-{N,N-[3'-(γ-aminopropyl)-1',5'-pentileneformamidine]}-penicillanicacid], for which the “levels of free acid in serum and organs relative to equivalent dose of corresponding free acid” value in data set [4] is “multiply higher”.
Regarding `CC1(C)S[C@@H]2[C@H](N=CN3CCCCCC3)C(=O)N2[C@H]1C(=O)O` [6-/N,N-1', 6'-hexyleneformamidine/-penicillanic acid, reference compound], the level of free acid in blood serum came to 300 ng/mL in data set [3] (po, 5 min); 900 ng/mL in data set [3] (po, 10 min); 1700 ng/mL in data set [3] (po, 0.25 h); 1800 ng/mL in data set [3] (po, 0.5 h); 1900 ng/mL in data set [3] (po, 0.75 h); 1900 ng/mL in data set [3] (po, 1 h). The level of free acid in blood serum in data set [3] (po, 2 h) stood at 1600 ng/mL; in data set [3] (po, 3 h), 1300 ng/mL; in data set [3] (po, 4 h), 800 ng/mL; in data set [3] (po, 5 h), 600 ng/mL; in data set [3] (po, 6 h), 500 ng/mL.

Source of the values: patent US4341779A, “Esters of amidinepenicillins” (priority 1978, dated 1982).
